The text below walks through data of ChEMBL document CHEMBL1201862, “PubChem BioAssay data set” (2004).

Some test systems named below: A549; HOP-62; SNB-19; MDA-MB-435; MDA-MB-231; K562; HT-29; U-251; COLO 205; DU-145; T47D; OVCAR-5; TK-10; MCF7; Hs-578T; UACC-62; HOP-92; NCI-H226; NCI-H522; SK-OV-3.
Common to all, as to assay: NCI anticancer screen, dose series, 48 h

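Where inhibition never reached the appropriate level, the endpoint shown equals the highest concentration tested. Otherwise, values were interpolated linearly from a five-concentration, 48-hour dose response in 96-well plates. Abbreviation: GI50, concentration required for 50% inhibition of growth.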 Calls of active or inactive are those of the source. No stated cut-off is given here; in the data, active = GI50 up to about 1.1 µM and inactive = higher.

With `C=CC(Cl)(CBr)CCC(Br)C(C)(C)Cl` (stereo not given), the GI50 is 31.3 µM (inactive) in the assay with A549; 16.3 µM (inactive) with HOP-62; 16.7 µM (inactive) in the assay on SNB-19; 14.2 µM (inactive) in the assay with MDA-MB-435; 14.5 µM (inactive) in the assay with MDA-MB-231; 14.9 µM (inactive) in the assay with K562. Besides, the GI50 was 15.3 µM (inactive) with HT-29; 14.4 µM (inactive) in the assay on U-251; 15.9 µM (inactive) in the assay with COLO 205; 19.7 µM (inactive) in the assay on DU-145; 16.6 µM (inactive) with T47D; 17.3 µM (inactive) with OVCAR-5. The GI50 with TK-10 is 23.2 µM (inactive); in the assay with MCF7, 6.92 µM (inactive); in the assay on Hs-578T, 35.4 µM (inactive); in the assay on UACC-62 it was 12.7 µM (inactive); in the assay with HOP-92, 19.5 µM (inactive); in the assay on NCI-H226 it was > 100 µM (inactive). Also, the GI50 in the assay with NCI-H522 was 10.6 µM (inactive); in the assay on SK-OV-3 it was 41.9 µM (inactive).
As for `O=C(O)c1c(Cl)c(Cl)c(Cl)c(Cl)c1C(=O)Nc1ccc2cn[nH]c2c1`, the GI50 in the assay with A549 is > 100 µM (inactive); in the assay on HOP-62 it was 59.6 µM (inactive); with SNB-19, > 100 µM (inactive); with MDA-MB-435 it was > 100 µM (inactive); with MDA-MB-231, > 100 µM (inactive); with K562 it was 97.3 µM (inactive). Moreover, the GI50 in the assay on HT-29 was > 100 µM (inactive); with U-251, > 100 µM (inactive); with COLO 205, > 100 µM (inactive); in the assay with DU-145, 48 µM (inactive); in the assay on T47D it was 74.3 µM (inactive); in the assay on OVCAR-5, > 100 µM (inactive). Further, the GI50 was > 100 µM (inactive) with TK-10; 92.7 µM (inactive) in the assay on MCF7; 39.7 µM (inactive) in the assay with Hs-578T; > 100 µM (inactive) in the assay with UACC-62; > 100 µM (inactive) in the assay on HOP-92; > 100 µM (inactive) in the assay with NCI-H226. The GI50 in the assay on NCI-H522 and in the assay with SK-OV-3 was > 100 µM (inactive) each time.
On to `COc1ccc2c(-c3csc(-c4c[nH]c5ccccc45)n3)c[nH]c2c1`, for which the GI50 in the assay on A549 is 4.98 µM (inactive); in the assay on HOP-62, 16.8 µM (inactive); with SNB-19, 13.2 µM (inactive); in the assay with MDA-MB-435 it was 13.8 µM (inactive); in the assay with MDA-MB-231, 5.2 µM (inactive); with K562 it was 3.44 µM (inactive). Moreover, the GI50 with HT-29 is 2.34 µM (inactive); in the assay on U-251, 5.19 µM (inactive); in the assay with COLO 205 it was 6.59 µM (inactive); in the assay on DU-145, 9.18 µM (inactive); in the assay with T47D it was 6.32 µM (inactive); in the assay on OVCAR-5 it was 7.8 µM (inactive). Besides, the GI50 in the assay on TK-10 is 9.2 µM (inactive); in the assay on MCF7, 4.36 µM (inactive); in the assay with Hs-578T, 12.5 µM (inactive); in the assay with UACC-62, 11.5 µM (inactive); in the assay on HOP-92, 7.46 µM (inactive); with NCI-H226 it was 9.4 µM (inactive). The GI50 with NCI-H522 is 4.04 µM (inactive); with SK-OV-3, 17.7 µM (inactive).
With `ClCCN(CCCl)c1ccc(CNCCCNCc2ccc(N(CCCl)CCCl)cc2)cc1`, the GI50 in the assay with A549 is 3.2 µM (inactive); in the assay on HOP-62, 2.54 µM (inactive); in the assay on SNB-19 it was 1.87 µM (inactive); with MDA-MB-435 it was 2.69 µM (inactive); in the assay on MDA-MB-231, 2.7 µM (inactive); in the assay with K562, 1.93 µM (inactive). The GI50 with HT-29 was 1.87 µM (inactive); in the assay with U-251, 1.33 µM (inactive); in the assay with COLO 205 it was 1.62 µM (inactive); in the assay with DU-145, 2.37 µM (inactive); in the assay on T47D, 2.04 µM (inactive); with OVCAR-5 it was 3.97 µM (inactive). In addition, the GI50 in the assay on TK-10 was 2.67 µM (inactive); in the assay on MCF7, 1.21 µM (inactive); in the assay on Hs-578T, 3.13 µM (inactive); in the assay on UACC-62 it was 1.97 µM (inactive); in the assay with HOP-92, 4.78 µM (inactive); in the assay with NCI-H226, 6.75 µM (inactive). Besides, the GI50 in the assay with NCI-H522 was 2.13 µM (inactive); in the assay with SK-OV-3 it was 2.61 µM (inactive).
Consider `CN(C)CCC(C#N)(c1ccccc1)c1ccccc1`, for which the GI50 in the assay on A549 is > 100 µM (inactive); in the assay with HOP-62, > 100 µM (inactive); in the assay on SNB-19, > 100 µM (inactive); in the assay with MDA-MB-435, > 100 µM (inactive); with MDA-MB-231 it was 47.5 µM (inactive); with K562, 4.06 µM (inactive). The GI50 in the assay on HT-29 is 33.7 µM (inactive); in the assay on U-251, 88.9 µM (inactive); in the assay on COLO 205, 45.2 µM (inactive); in the assay on DU-145, > 100 µM (inactive); in the assay with T47D it was 97.9 µM (inactive); in the assay with OVCAR-5 it was 79.6 µM (inactive). For the same molecule, the GI50 with TK-10 is 60.1 µM (inactive); with MCF7, 94.4 µM (inactive); with Hs-578T, 93.5 µM (inactive); in the assay with UACC-62, 73.3 µM (inactive); with HOP-92, 12.3 µM (inactive); with NCI-H226, > 100 µM (inactive). For the same molecule, the GI50 with NCI-H522 is 96.6 µM (inactive); in the assay on SK-OV-3 it was > 100 µM (inactive).
Turning to `COC1CCC(O)C(/C=C/[N+](=O)[O-])C1` (stereo not given), the GI50 was 10.6 µM (inactive) in the assay on A549; 5.41 µM (inactive) in the assay with HOP-62; 11.5 µM (inactive) in the assay on SNB-19; 1.65 µM (inactive) with MDA-MB-435; 4.82 µM (inactive) in the assay with MDA-MB-231; 3.03 µM (inactive) in the assay on K562. For the same molecule, the GI50 is 3.37 µM (inactive) with HT-29; 2.19 µM (inactive) in the assay on U-251; 2.28 µM (inactive) in the assay with COLO 205; 3.64 µM (inactive) in the assay on DU-145; 11.3 µM (inactive) in the assay with T47D; 9.1 µM (inactive) with OVCAR-5. Also, the GI50 was 4.72 µM (inactive) in the assay on TK-10; 2.88 µM (inactive) in the assay with MCF7; 2.99 µM (inactive) in the assay on Hs-578T; 6.24 µM (inactive) with UACC-62; 12.5 µM (inactive) in the assay with HOP-92; 2.07 µM (inactive) in the assay with NCI-H226. The GI50 was 10.9 µM (inactive) in the assay on NCI-H522 and 10.1 µM (inactive) with SK-OV-3.
On to `CN(C)CCNC(=O)c1cccc2c(NCCN(C)C)c3ccccc3nc12`, for which the GI50 in the assay with A549 is 1.91 µM (inactive); in the assay on HOP-62 it was 3.19 µM (inactive); with SNB-19, 3.24 µM (inactive); in the assay on MDA-MB-435, 2.94 µM (inactive); in the assay with MDA-MB-231 it was 2 µM (inactive); with K562, 1.73 µM (inactive). Further, the GI50 in the assay with HT-29 was 1.61 µM (inactive); with U-251, 2.69 µM (inactive); in the assay with COLO 205, 1.92 µM (inactive); with DU-145, 3.82 µM (inactive); with T47D it was 14.6 µM (inactive); in the assay on OVCAR-5 it was 2.89 µM (inactive). Also, the GI50 is 3.24 µM (inactive) in the assay on TK-10; 2.36 µM (inactive) in the assay with MCF7; 2.66 µM (inactive) in the assay with Hs-578T; 4.55 µM (inactive) in the assay with UACC-62; 2.16 µM (inactive) with HOP-92; 1.37 µM (inactive) with NCI-H226. In addition, the results for the GI50 in the assay on NCI-H522 and in the assay with SK-OV-3 were 1.37 µM (inactive) and 7.4 µM (inactive), respectively.
In the case of `CC1(C)CC(=O)C(C(c2cccc(O)c2O)C2C(=O)CC(C)(C)CC2=O)C(=O)C1`, the GI50 in the assay with A549 is > 100 µM (inactive); in the assay with HOP-62, > 100 µM (inactive); in the assay on SNB-19 it was > 100 µM (inactive); in the assay on MDA-MB-435 it was 91 µM (inactive); in the assay with MDA-MB-231, > 100 µM (inactive); in the assay on K562 it was 92.9 µM (inactive). Besides, the GI50 is > 100 µM (inactive) in the assay on HT-29; > 100 µM (inactive) with U-251; > 100 µM (inactive) in the assay on COLO 205; > 100 µM (inactive) with DU-145; 91.2 µM (inactive) with T47D; > 100 µM (inactive) in the assay with OVCAR-5. The GI50 is > 100 µM (inactive) with TK-10; 49.2 µM (inactive) in the assay on MCF7; 74.5 µM (inactive) in the assay with Hs-578T; > 100 µM (inactive) in the assay on UACC-62; 49.3 µM (inactive) in the assay with HOP-92; > 100 µM (inactive) in the assay with NCI-H226. Moreover, the GI50 in the assay with NCI-H522 was 63.2 µM (inactive); in the assay on SK-OV-3, > 100 µM (inactive).
In the case of `c1ccc2c[n+](CCCCCCCCCC[n+]3ccc4ccccc4c3)ccc2c1`, the GI50 in the assay on A549 is 0.585 µM (active); with HOP-62, > 10 µM (inactive); in the assay on SNB-19 it was > 10 µM (inactive); with MDA-MB-435 it was > 10 µM (inactive); in the assay with MDA-MB-231, > 10 µM (inactive); in the assay with K562, 2.04 µM (inactive). Further, the GI50 in the assay on HT-29 was > 5.37 µM (inactive); with U-251, > 8.59 µM (inactive); in the assay on COLO 205 it was 4.76 µM (inactive); in the assay with DU-145 it was > 4.81 µM (inactive); in the assay on T47D, > 10 µM (inactive); with OVCAR-5 it was > 5.09 µM (inactive). For the same molecule, the GI50 in the assay with TK-10 is > 10 µM (inactive); with MCF7, > 10 µM (inactive); in the assay with Hs-578T, 9.91 µM (inactive); with UACC-62, > 10 µM (inactive); with HOP-92, > 10 µM (inactive); with NCI-H226 it was > 3.34 µM (inactive). Besides, the GI50 in the assay on NCI-H522 is 4.17 µM (inactive); in the assay on SK-OV-3 it was > 10 µM (inactive).
